From patent publication US9469645B2, “Compounds and compositions for the treatment of parasitic diseases” (Novartis AG, priority 2009, dated 2016)
Read-outs that look alike come from different tables or passages of the source.

Assays:
[1] = test system: W2 strain; assay: parasite proliferation assay in infected red blood cells (SYBR Green I), W2 strain; assay type: cell-based, Plasmodium falciparum; settings: Plasmodium falciparum, Erythrocyte
Text: (§1) Compounds of the invention can be assayed to measure their capacity to inhibit proliferation of parasitemia in infected red blood cells. The proliferation is quantified by the addition of SYBR Green I (INVITROGEN)® dye which has a high affinity for double stranded DNA.

[2] = test system: 3D7 P. falciparum strain; assay: parasite proliferation assay in infected red blood cells (SYBR Green I); assay type: cell-based, Plasmodium falciparum; settings: 3D7 strain, read-out: EC50 3D7 strain
Procedure, shortened: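 P. falciparum 3D7 grown in O+ human erythrocytes to 3–8% parasitemia and exposed to compounds. Proliferation read as the increase in parasite DNA. Detection used SYBR Green I in saponin/triton-X/EDTA lysis buffer, with overnight lysis at room temperature.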

[3] = test system: W2 strain; assay: parasite proliferation assay in infected red blood cells (SYBR Green I), W2 strain; assay type: cell-based
Text: as §1

[4] = Plasmodium falciparum, 3D7, Erythrocyte
[5] = Plasmodium falciparum, Erythrocyte

SMILES	EC50 [1] [nM]	EC50 [2, 4] [nM]	also measured
CC1(C)Cn2c(nc(-c3ccc(F)cc3)c2Nc2ccc(Cl)c(F)c2)CN1C(=O)CN [Compound 576]	234	200	
CC1(C)NCCn2c1nc(-c1ccc(F)cc1)c2Nc1cc(F)c(F)c(F)c1 [Compound 555]	16	10	
Cc1cc(Nc2c(-c3ccc(F)cc3)nc3n2CCN(C(=O)C(C)(C)N)C3)cc(C)c1F [Compound 428]	242	170	
CC1(C)NCCn2c1nc(-c1ccc(F)cc1)c2Nc1ccc(F)c(C#N)c1 [Compound 524]	57	40	
CC(C)[C@@H]1NC(=O)Cn2c1nc(-c1ccc(F)cc1)c2Nc1ccc(Cl)c(F)c1 [Compound 562]	6290	4820	
CC(C)(C)OC(=O)NCC(=O)N1CCn2cc(-c3ccc(F)cc3)nc2C1 [Compound 540, tert-butyl 2-(2-(4-fluorophenyl)-5,6-dihydroimidazo[1,2-a]pyrazin-7(8H)-yl)-2-oxoethylcarbamate]	9810	8420	
N[C@@H](CC1CCC1)C(=O)N1CCn2c(nc(-c3ccc(F)cc3)c2Nc2ccc(Cl)cc2)C1 [Compound 452]	19	20	
Cc1cc(Nc2c(-c3ccc(F)cc3)nc3n2CCN(C(=O)C(C)(C)N)C3(C)C)ccc1Cl [Compound 589]	6	10	
N[C@H](C(=O)N1CCn2c(nc(-c3ccc(F)cc3)c2Nc2ccc(F)c(F)c2)C1)C1CC1 [Compound 437]	28	20	
Cc1ccc(Nc2c(-c3ccc(F)cc3)nc3n2CCN(C(=O)C(C)(N)CC(C)C)C3)cc1 (centres unmarked) [Compound 503]	95	120	
CC[C@H](C)[C@H](N)C(=O)N1CCn2c(nc(-c3ccc(F)cc3)c2Nc2ccc(C)cc2)C1 [Compound 481]	14	20	
CC(C)N(c1cccc(F)c1)c1c(-c2ccc(F)cc2)nc2n1CCNC2 [Compound 445]	3270	2600	
N[C@H](C(=O)N1CCn2c(nc(-c3ccc(F)cc3)c2Nc2ccc(Cl)cc2)C1)C1CC1 [Compound 450]	15	20	
Cc1ccc(Nc2c(-c3ccc(F)cc3)nc3n2CC(C)(C)N(C(=O)CN)C3)cc1 [Compound 573]	55	40	
CC1(C)NCCn2c1nc(-c1ccc(F)cc1)c2Nc1ccc(F)c(F)c1 [Compound 422]	21	10	
CC1(C)NCCn2c1nc(-c1ccc(F)cc1)c2Nc1ccc(F)c(Cl)c1 [Compound 424]	30	20	
CCN1CCCC1CNc1c(-c2ccc(F)cc2)nc2n1CC(=O)NC2(C)C (centres unmarked) [Compound 561]	4400	7170	
CC1(C)Cn2c(nc(-c3ccc(F)cc3)c2Nc2ccc(Cl)cc2)CN1 [Compound 558]	89	60	
CC1(C)Cn2c(nc(-c3ccc(F)cc3)c2Nc2ccc(F)c(F)c2)CN1 [Compound 580]	169	150	
Cc1ccc(Nc2c(-c3ccc(F)cc3)nc3n2CCNC3(C)C)cc1C#N [Compound 527]	6	4	

SMILES	EC50 [1] [nM]	EC50 [2, 4] [nM]	also measured
N[C@@H](Cc1ccc(F)cc1)C(=O)N1CCn2c(nc(-c3ccc(F)cc3)c2Nc2ccc(F)c(F)c2)C1 [Compound 443]	55	50	
N[C@H](C(=O)N1CCn2c(nc(-c3ccc(F)cc3)c2Nc2ccc(F)cc2)C1)C1CC1 [Compound 465]	2	1.9	
O=C([C@@H]1CCN1)N1CCn2c(nc(-c3ccc(F)cc3)c2Nc2ccc(Cl)cc2)C1 [Compound 462]	37	50	
CN1CCN(c2ccc(Nc3c(-c4ccc(F)cc4)nc4n3CC(=O)NC4(C)C)cc2)CC1 [Compound 568]	> 11300	> 8040	
N[C@@H](CC1CCC1)C(=O)N1CCn2c(nc(-c3ccc(F)cc3)c2Nc2ccc(F)c(F)c2)C1 [Compound 429]	36	20	
CC(C)[C@H](O)C(=O)N1CCn2c(nc(-c3ccc(F)cc3)c2Nc2ccc(Cl)c(F)c2)C1 [Compound 489]	9	10	
CC1(C)NCCn2c1nc(-c1ccc(F)cc1)c2Nc1cccc(F)c1 [Compound 514]	24	30	
Cc1ccc(Nc2c(-c3ccc(F)cc3)nc3n2CC(=O)NC3(C)C)cc1Cl [Compound 546]	52	30	
CC(C)(N)C(=O)N1CCn2c(nc(-c3ccc(F)cc3)c2Nc2ccc(Cl)c(Cl)c2)C1(C)C [Compound 587]	12	10	
N[C@@H](CC1CC1)C(=O)N1CCn2c(nc(-c3ccc(F)cc3)c2Nc2ccc(F)c(F)c2)C1 [Compound 438]	23	20	
Cc1ccc(C[C@H](N)C(=O)N2CCn3c(nc(-c4ccc(F)cc4)c3Nc3ccc(Cl)cc3)C2)cc1 [Compound 459]	24	40	
Cc1ccc(Nc2c(-c3ccc(F)cc3)nc3n2CCNC3(C)C)cc1F [Compound 541]	10	10	
N[C@@H](Cc1cscn1)C(=O)N1CCn2c(nc(-c3ccc(F)cc3)c2Nc2ccc(F)c(F)c2)C1 [Compound 431]	80	70	
CC1(C)NC(=O)Cn2c1nc(-c1ccc(F)cc1)c2Nc1ccc(F)c(C#N)c1 [Compound 537]	8340	11900	
Cc1ccc(Nc2c(-c3ccc(F)cc3)nc3n2CCN(C(=O)[C@H](C)NCc2ccccc2)C3)cc1 [Compound 403]	543	510	
CC(C)[C@H](O)C(=O)N1CCn2c(nc(-c3ccc(F)cc3)c2Nc2ccc(F)cc2)C1 [Compound 470]	12	10	
CC1(C)NC(=O)Cn2c1nc(-c1ccc(F)cc1)c2Nc1ccc(S(C)(=O)=O)cc1 [Compound 567]	8460	6460	
CC1(C)c2nc(-c3ccc(F)cc3)c(Nc3cc(F)c(F)c(F)c3)n2CCN1C(=O)CN [Compound 554]	7		
CC(C)(N)C(=O)N1CCn2c(nc(-c3ccc(F)cc3)c2Cc2ccc(F)cc2)C1 [Compound 697]		362	EC50 [3, 5]: 256 nM
Cc1ccc(-c2c(-c3ccc(Cl)cc3)nc3n2CCN(C(=O)C(C)(C)N)C3)cc1 [Compound 47]		6980	EC50 ([3]; Erythrocyte): 6180 nM

SMILES	EC50 [1] [nM]	EC50 [2, 4] [nM]	also measured
Cc1ccc(Nc2c(-c3ccc(F)cc3)nc3n2CCN(C(=O)C2CCCNC2)C3)cc1 (centres unmarked) [Compound 86]			EC50 [3]: 755 nM; EC50 [2]: 710 nM
O=C(CN1CCCC1)N1CCn2c(nc(-c3ccc(F)cc3)c2Nc2ccc(F)cc2)C1 [Compound 33]		740	EC50 ([3]; Erythrocyte): 1620 nM
CC1(C)c2nc(-c3ccc(F)cc3)c(Sc3ccc(F)c(F)c3)n2CCN1C(=O)CN [Compound 718]		8	EC50 [3, 5]: 6 nM
CC(C)(N)C(=O)N1CCn2c(nc(-c3cc(F)cc(F)c3)c2Nc2ccc(F)cc2)C1 [Compound 13]		260	EC50 ([3]; Erythrocyte): 137 nM
Cc1ccc(Nc2c(-c3ccc(F)cc3)nc3n2CCN(C(=O)C2(N)CCC2)C3)cc1 [Compound 139]		160	EC50 ([3]; Erythrocyte): 165 nM
COc1ccc(CN2Cc3nc(-c4ccc(F)cc4)c(Nc4ccc(Cl)c(C)c4)n3C(C)(C)C2=O)cc1 [Compound 614]		5020	EC50 [3, 5]: 4520 nM
Cc1ccc(Nc2c(-c3ccc(F)cc3)nc3n2CCN(C(=O)CC(N)C(F)(F)F)C3)cc1 (centres unmarked) [Compound 190]		940	EC50 ([3]; Erythrocyte): 1070 nM
CCCCC(=O)Nc1ccc(C[C@H](NC(=O)OC(C)(C)C)C(=O)N2CCn3c(nc(-c4cccc(F)c4)c3Nc3ccc(Cl)c(F)c3)C2)cc1 [Compound 252]		3030	EC50 ([3]; Erythrocyte): 631 nM
CC(C)(C)OC(=O)N[C@@H](CC(=O)O)C(=O)N1CCn2c(nc(-c3cccc(F)c3)c2Nc2ccc(F)cc2)C1 [Compound 241]		5270	EC50 ([3]; Erythrocyte): 2360 nM
Cc1ccc(Nc2c(-c3ccc(F)cc3)nc3ccccn23)cc1 [Compound 751]		1790	EC50 [3, 5]: 4550 nM
CCCCCNc1ccc(C[C@H](N)C(=O)N2CCn3c(nc(-c4ccc(F)cc4)c3Nc3ccc(C)cc3)C2)cc1 [Compound 272]		3590	EC50 ([3]; Erythrocyte): 3260 nM
Cc1ccc(Nc2c(-c3ccc(F)cc3)nc3n2CCN(C(=O)Cc2cc(Cl)cc(Cl)c2)C3)cc1 [Compound 230]		320	EC50 ([3]; Erythrocyte): 255 nM
Cc1ccc(Nc2c(-c3ccc(F)cc3)nc3n2CCN(C(=O)C2(O)CCCCC2)C3)cc1 [Compound 117]		1260	EC50 ([3]; Erythrocyte): 1190 nM
Cc1ccc(Nc2c(-c3cccc(F)c3)nc3n2C(C)(C)CN(C(=O)[C@@H](O)Cc2ccccc2)C3)cc1 [Compound 599]		120	EC50 [3, 5]: 134 nM
Fc1cccc(-c2nc3n(c2Nc2ccc(Cl)c(F)c2)CCNC3)c1 [Compound 217]		130	EC50 ([3]; Erythrocyte): 106 nM
CCCCC(=O)Nc1ccc(C[C@H](N)C(=O)N2CCn3c(nc(-c4cccc(F)c4)c3Nc3ccc(Cl)c(F)c3)C2)cc1 [Compound 258]		4920	EC50 ([3]; Erythrocyte): 3510 nM
Fc1ccc(-c2nc3n(c2Nc2ccc(Cl)c(F)c2)CCNC3)cc1 [Compound 192]		110	EC50 ([3]; Erythrocyte): 95 nM
Cc1ccc(Nc2c(-c3ccc(F)cc3)nc3n2CCN(C(=O)[C@@H](C)c2ccccc2)C3)cc1 [Compound 175]		80	EC50 ([3]; Erythrocyte): 105 nM
CCCC(=O)N[C@H](C(=O)N1CCn2c(nc(-c3ccc(F)cc3)c2Nc2ccc(C)cc2)C1)c1ccccc1 [Compound 291]		1200	EC50 ([3]; Erythrocyte): 567 nM
CNCC(=O)N1CCn2c(nc(-c3ccc(F)cc3)c2Nc2ccc(C)cc2)C1 [Compound 75]		250	EC50 ([3]; Erythrocyte): 190 nM
